Patent US12714681B2, “Packaged, sealed container system for stable storage of an oxygen sensitive pharmaceutical formulation” (Baxter International Inc., priority 2020, dated 2026)

Columns and labels:
[1] = test system: various receptors; conditions: R-isomer compared with S-isomer; cited from earlier work
[2] = Exploration of parameters: stability of norepinephrine formulations in 0.9% sodium chloride pre and post terminal sterilization; format: physicochemical
Description: Formulation parameters, such as antioxidant concentration and solution pH, were evaluated. Lab-scale batches were prepared and filled into containers through cut corners (resealed). Containers were subsequently vacuum sealed into overpouches. All formulations were prepared in 0.9% sodium chloride. Oxygen levels were controlled by preparing samples within a glove box under N2 atmosphere. Replicates were tested pre and post sterilization. Runs were evaluated by O2 content (head space and solution), pH, concentration of analyte and related compounds, enantiomeric purity, amount of antioxidant, and “visual inspection.”
Nineteen formulations were prepared in accordance with the table above.

[3] = cited from earlier work

Row | Compound | affinity to various receptors / pharmaceutical activity [1] | rate of epimerization to the S-isomer ([2]; higher pH values) | rate of norepinephrine oxidation ([2]; lower pH values) | solubility in acidic solutions ([3]; acidic solutions) | solubility in alcohols and ethers ([3]; alcohols and ethers) | solubility in water ([3]; water)
1 | NC[C@H](O)c1ccc(O)c(O)c1 (single isomer, unassigned) [R-isomer] | higher affinity |  |  |  |  | 
2 | NC[C@@H](O)c1ccc(O)c(O)c1 (single isomer, unassigned) [S-isomer] | negligible pharmaceutical activity |  |  |  |  | 
3 | NC[C@H](O)c1ccc(O)c(O)c1 [norepinephrine] |  | decreased the rate of epimerization to the S-isomer | decreased the rate of norepinephrine oxidation | readily soluble | slightly soluble | sparingly soluble
